The target of the assay is T1, P2X7 (UniProt Q99572).
T1 sequence (Q99572 1-595): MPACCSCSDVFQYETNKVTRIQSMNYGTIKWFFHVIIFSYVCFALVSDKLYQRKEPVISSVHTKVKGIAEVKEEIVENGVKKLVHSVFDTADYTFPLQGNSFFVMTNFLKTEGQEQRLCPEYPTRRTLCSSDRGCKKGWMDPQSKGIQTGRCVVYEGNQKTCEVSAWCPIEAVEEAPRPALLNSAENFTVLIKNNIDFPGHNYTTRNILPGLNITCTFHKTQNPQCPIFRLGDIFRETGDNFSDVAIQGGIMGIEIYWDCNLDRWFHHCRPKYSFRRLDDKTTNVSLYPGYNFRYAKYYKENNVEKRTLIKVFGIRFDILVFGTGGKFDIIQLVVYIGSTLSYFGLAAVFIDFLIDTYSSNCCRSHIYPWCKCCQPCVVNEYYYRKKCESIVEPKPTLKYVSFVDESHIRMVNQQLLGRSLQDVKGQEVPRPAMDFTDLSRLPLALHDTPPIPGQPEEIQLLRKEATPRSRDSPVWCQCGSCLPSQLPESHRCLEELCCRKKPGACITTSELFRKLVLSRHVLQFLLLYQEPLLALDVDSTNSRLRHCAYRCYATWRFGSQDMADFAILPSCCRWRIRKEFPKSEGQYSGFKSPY
Put plainly: P2X7 activity of Table 1. In kind it is cell-based. Particulars: pIC50 values for P2X7. As for the experimental part: Stock solutions of compounds were prepared from powders as a 10 mM DMSO stock solution. These solutions were stored at RT during the two week period of these experiments to prevent freeze-thaw of the DMSO stocks. The DMSO stocks were added to the appropriate assay buffer at a concentration of 10 μM, and then diluted serially to the final concentrations that were tested. […] The aqueous solutions of compounds as well as ATP (Sigma A7699) and BzATP (Sigma B6396) were prepared fresh for each day of experiment.
1321N1 cells stably expressing the full length human P2X7 gene (1321N1-hP2X7) and HEK293 cells stably expressing the full length rat P2X7 gene (HEK293-rP2X7) were obtained from the Roche Cell Culture Facility. 1321N1-hP2X7 cells were grown in Dulbecco's Modified Eagle's Medium (DMEM) high glucose supplemented with 10% FBS and 250 μg/mL G418. HEK293-rP2X7 cells were grown in DMEM/F-12 supplemented with 10% FBS, 1 mM CaCl2, 2 mM MgCl2, 2 mM L-Glutamine and 500 μg/ml G418. Cells were split such that they never became >70% confluent.
On the day prior to the experiment, 1321N1-hP2X7 or HEK293-rP2X7 cells were released into suspension with calcium-free PBS+Versene and washed by centrifugation with calcium-free PBS to remove the Versene. Cells were resuspended in growth medium at a density of 2.5×10^5 cells/mL and seeded into black walled, clear bottom 96 well plates (50,000 cells/well) approximately 18 hr prior to intracellular calcium flux experiments.
On the day of the experiment, plates were washed with FLIPR buffer (calcium- and magnesium-free Hank's Balanced Salt Solution (HBSS) supplemented with 10 mM Hepes, 2.5 mM probenecid and 2 mM calcium chloride) using a BIO-TEK 96 channel plate washer and incubated with […] fluo-3 dye at 37° C. for one hr. The dye was then removed by plate washing and the cells were allowed to equilibrate for 20 min at room temperature with antagonist or vehicle (FLIPR buffer). Agonist (100 μM BzATP final concentration for hP2X7; 5 μM BzATP final concentration or rP2X7) was added online with the FLIPR and fluorescence measurements made at 1 sec intervals for 60 sec followed by 3 sec intervals for a further 4 min (5 min total). A final addition of 5 μM ionomycin was made and the maximal BzATP-evoked fluorescence normalized to the maximal ionomycin-evoked fluorescence.
Compound `Cc1ccc(-c2ccn(CCO)n2)cc1NC(=O)C1=CNC(=O)C[C@H]1c1cccc(Cl)c1` (stereo in doubt) [Compound 114, 4-(3-Chloro-phenyl)-6-oxo-1,4,5,6-tetrahydro-pyridine-3-carboxylic acid {5-[1-(2-hydroxy-ethyl)-1H-pyrazol-3-yl]-2-methyl-phenyl}-amide] yielded a pIC50 of 7.56.
Then `Cc1ccc(-n2cccc2)cc1NC(=O)C1=CNC(=O)CC1c1cccc(F)c1` (centres unmarked) [Compound 1, 4-(3-Fluoro-phenyl)-6-oxo-1,4,5,6-tetrahydro-pyridine-3-carboxylic acid (2-methyl-5-pyrrol-1-yl-phenyl)-amide], with 6.985.
For `Cc1ccc(-c2cc(C)n(CCO)n2)cc1NC(=O)C1=CNC(=O)C[C@H]1c1ccc(F)cc1` [Compound 2, (S)-4-(4-Fluoro-phenyl)-6-oxo-1,4,5,6-tetrahydro-pyridine-3-carboxylic acid {5-[1-(2-hydroxy-ethyl)-5-methyl-1H-pyrazol-3-yl]-2-methyl-phenyl}-amide], the pIC50 amounted to 7.735.
`Cc1ccc(-c2nnn(C)n2)cc1NC(=O)C1=CNC(=O)C[C@H]1c1ccc(F)cc1` [Compound 3, (S)-4-(4-Fluoro-phenyl)-6-oxo-1,4,5,6-tetrahydro-pyridine-3-carboxylic acid [2-methyl-5-(2-methyl-2H-tetrazol-5-yl)-phenyl]-amide] displayed a negative logarithm of the IC50 (pIC50) of 6.21.
Compound `Cc1ccc(-c2cc(C)n(C)n2)cc1NC(=O)C1=CNC(=O)C[C@H]1c1ccc(F)cc1` [Compound 4, (S)-4-(4-Fluoro-phenyl)-6-oxo-1,4,5,6-tetrahydro-pyridine-3-carboxylic acid [5-(1,5-dimethyl-1H-pyrazol-3-yl)-2-methyl-phenyl]-amide] came in with a pIC50 of 7.715.
Then `Cc1ccc(-c2cc[nH]n2)cc1NC(=O)C1=CNC(=O)C[C@H]1c1ccc(F)cc1` [Compound 5, (S)-4-(4-Fluoro-phenyl)-6-oxo-1,4,5,6-tetrahydro-pyridine-3-carboxylic acid [2-methyl-5-(1H-pyrazol-3-yl)-phenyl]-amide], with 7.745; and `Cc1ccc(-c2ccc(C)c(NC(=O)C3=CNC(=O)C[C@H]3c3ccc(F)cc3)c2)nc1` [Compound 6, (S)-4-(4-Fluoro-phenyl)-6-oxo-1,4,5,6-tetrahydro-pyridine-3-carboxylic acid [2-methyl-5-(5-methyl-pyridin-2-yl)-phenyl]-amide], with 7.07; and `Cc1ccc(-c2cc(C)n(CC(C)O)n2)cc1NC(=O)C1=CNC(=O)C[C@H]1c1ccc(F)cc1` (stereo partly drawn) [Compound 7, (S)-4-(4-Fluoro-phenyl)-6-oxo-1,4,5,6-tetrahydro-pyridine-3-carboxylic acid {5-[1-(2-hydroxy-propyl)-5-methyl-1H-pyrazol-3-yl]-2-methyl-phenyl}-amide], with 7.643.
Then `Cc1ccc(-c2ccnn2CC(C)C)cc1NC(=O)C1=CNC(=O)C[C@H]1c1ccc(F)cc1` [Compound 8, (S)-4-(4-Fluoro-phenyl)-6-oxo-1,4,5,6-tetrahydro-pyridine-3-carboxylic acid [5-(2-isobutyl-2H-pyrazol-3-yl)-2-methyl-phenyl]-amide], with 6.367.
Then `Cc1ccc(-c2nnnn2C)cc1NC(=O)C1=CNC(=O)C[C@H]1c1ccc(F)cc1` [Compound 9, (S)-4-(4-Fluoro-phenyl)-6-oxo-1,4,5,6-tetrahydro-pyridine-3-carboxylic acid [2-methyl-5-(1-methyl-1H-tetrazol-5-yl)-phenyl]-amide], with 6.1767.
Take `Cc1ccc(-c2ccc(C)c(NC(=O)C3=CNC(=O)C[C@H]3c3ccc(F)cc3)c2)cn1` [Compound 10, (S)-4-(4-Fluoro-phenyl)-6-oxo-1,4,5,6-tetrahydro-pyridine-3-carboxylic acid [2-methyl-5-(6-methyl-pyridin-3-yl)-phenyl]-amide]: the pIC50 is 6.653.

One may read the pIC50 as −log10 of the IC50, conventionally taken in molar units. Low readings indicate a large IC50, high ones a small IC50.
